Measurements: US20100048714A1, “Methods and Compositions Related to Inhibition of Ceramide Synthesis” (University of Utah Research Foundation, priority 2006, published 2010)

Experiments:
DES 1 = target: T1, DES 1 (Homo sapiens, UniProt O15121); settings: Zheng et al. 2006; Szkudelski et al. 2006; cited from earlier work
T1 sequence (O15121 1-323): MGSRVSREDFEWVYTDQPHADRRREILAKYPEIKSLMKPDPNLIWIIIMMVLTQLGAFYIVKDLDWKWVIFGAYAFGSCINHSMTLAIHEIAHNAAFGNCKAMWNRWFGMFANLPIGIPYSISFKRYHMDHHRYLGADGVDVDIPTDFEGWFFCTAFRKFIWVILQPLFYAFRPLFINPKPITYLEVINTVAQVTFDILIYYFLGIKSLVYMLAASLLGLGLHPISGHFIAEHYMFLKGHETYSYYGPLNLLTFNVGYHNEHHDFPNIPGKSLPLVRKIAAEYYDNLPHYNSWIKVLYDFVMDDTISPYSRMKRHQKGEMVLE

Sprague-Dawley rats [1] = test: Glucose tolerance test (glucose 1 g/kg IP) in dexamethasone-treated rats; assay type: in vivo, rat; settings: dexamethasone vs vehicle
Experimental: (§1) (A) Sprague-Dawley rats were treated with myriocin (300 μg/Kg, IP, solid bars) or saline (open bars) for two weeks prior to giving administering dexamethasone (40 μg/Kg, IP) or vehicle (5% ethanol) every 12 hours for 36 hours. Animals were euthanized by CO2 inhalation, livers were removed, and ceramide levels were assessed as described in SOM-Methods. Shown are mean ceramide levels+/−S.E.M, n=6 per group. The asterisk denotes that the sample was statistically different from vehicle-treated controls, p<0.05, student's t-test. (B) Livers were obtained as in A, above, and protein and mRNA were extracted as described in SOM-Methods. Levels of transcripts (solid bars) encoding serine palimitoyl transferase isoforms 1 and 2 (SPT1 and SPT2), dihydroceramide synthases (DCS) TL1, UOG, and TRH3, glucosylceramide synthase (GCS), and acid ceramidase (AC) transcripts were obtained by reverse-transcriptase polymerase chain reaction, normalized to β-actin. SPT2 protein levels (white bars) were detected by immunoblotting with an antibody from Cayman Chemicals (Ann Arbor, Mich.) and quantified on a Kodak Image Station 2000R (Rochester, N.Y.). Data represent the fold-change in transcript or protein in dexamethasone-treated animals relative to vehicle controls. […] (C and D) Rats were challenged with glucose (1 g/kg) given intraperitoneally (IP) following treatment with dexamethasone (squares), ethanol carrier (triangles), myriocin (open shapes), or saline (solid shapes) as in A, above. Tail vein blood (3 μl) was sampled for glucose (C)(using the Glucometer Elite from Bayer Corp., Tarrytown, N.Y.) or insulin (D) (using an Elisa kit from Linco Diagnostics, Springfield, Mo.). […] (E-G) Hyperinsulinemic euglycemic clamps were performed on animals (n=4 per group) treated as in A, above, as described in SOM-Methods. Data from animals receiving myriocin are depicted in solid bars. (E) The glucose infusion rate required to maintain normal glycemia during insulin infusion ([…]) was calculated as the average infusion rate during the 60 minute steady state. (F) Hepatic glucose output was estimated by the disappearance of [^14C] glucose from a bolus dose given during the steady state minus the glucose infusion rate. (G) Disappearance of a bolus dose of [^3H] 2-deoxyglucose from the bloodstream was used to estimate the rate of whole body glucose uptake.
Tail vein blood (3 μl) was sampled for glucose determination (Hitachi 911 clinical chemistry analyzer, Roche, Indianapolis, Ind. or Glucometer Elite, Bayer Corp., Tarrytown, N.Y.)-30 minutes, immediately before and 15, 30, 45, 60, 90, and 120 min after glucose administration. Additionally, serum was collected and analyzed for insulin by Elisa (Linco Diagnostics, Springfield, Mo.).

Sprague dawley rats [2] = test: Hyperinsulinemic euglycemic clamps of dexamethasone treated rats; assay type: in vivo, rat; settings: plasma, Dexamethasone-treated (Saline or Myriocin), mean ± standard error, n=4
Experimental: as §1
To definitively evaluate effects on insulin sensitivity, as well as to distinguish whether the treatment protocols differentially affected glucose uptake in skeletal muscle or hepatic output by the liver, hyperinsulinemic-euglycemic clamps with D-[U-^14C] glucose and 2-deoxy-D-[2,6-^3H] glucose tracers were performed.
Clamps were performed in conscious unrestrained animals using swivels and tethers (Instech, Plymouth Meeting, Pa.) to allow uninterrupted movement of the animal without disruption of infusion lines. Hyperinsulinemia was initiated by intravenous infusion of insulin (10 mU/kg/min at a flow rate of 4 μL/min). Blood was sampled from arterial lines in 7 minute intervals and analyzed with a Beckman Glucose analyzer II (Beckman Coulter, Fullerton, Calif.). Euglycemia was maintained by variable infusion of 20% dextrose. Steady state was achieved approximately 90 minutes after initiating hyperinsulinemia and maintained for 30 minutes. Glucose infusion rates were calculated as the average glucose infusion rate during the 30 minute steady state. Additional blood samples were taken before initiating hyperinsulinemia and at the end of the clamp for analysis of insulin and free fatty acids.

Sprague dawley rats [3] = test: as above; assay type: in vivo, rat; settings: plasma, 60 minute steady state; Dexamethasone-treated (Saline or Myriocin); mean ± standard error, n=4
[4] = system: genes which control ceramide synthesis or degradation; test: RT-PCR of genes which control ceramide synthesis or degradation after TNFα; assay type: cell-based
Experimental: Using RT-PCR, mRNA levels of serine palmitoyltransferase subunits (LCB1 and LCB2), acid ceramidase (AC), glucosylceramide synthase (GCS), ceramide kinase (CerK), and ceramide synthase isoforms 1-6 (Cers/Lass 1-6) were evaluated.
The possibility that TNFαα-stimulation of lipolysis can account for the increase in ceramide by stimulating the formation of intracellular palmitoyl-CoA, which could serve as a precursor for ceramide biosynthesis, was considered. […] Instead, it appears that TNFα regulates the expression or activity of enzymes that control intracellular ceramide levels. Using RT-PCR, changes in mRNA levels of genes which control ceramide synthesis or degradation were evaluated. […] The analysis was extended to consider several ceramide synthase (CerS/LASS) isoforms, which selectively catalyze the incorporation of distinct fatty acids into the sphinganine backbone. TNFα-induced an impressive 8 and 5-fold increase in CerS1 and CerS4, respectively. These enzymes preferentially catalyze the production of ceramide species containing the stearate fatty acid.

Sprague-Dawley rats [5] = test: Lipid infusion with hyperinsulinemic euglycemic clamps; assay type: in vivo, rat; settings: for Glucose, During Clamp / FFA, Before Clamp / FFA, Before Infusion / FFA, During Clamp / Glucose, Before Clamp / Glucose, Before Infusion / Insulin, Before Clamp / Insulin, Before Infusion / Insulin, During Clamp: plasma, mean ± standard error, n=4; for Glucose, During Clamp: 30 minute steady state
Text: The more common mechanism by which insulin resistance likely develops in the obese is through the accumulation of fats in tissues not-suited for lipid storage. Indeed, intramyocellular lipid levels inversely correlate with insulin sensitivity, and are one of the best predictors of insulin resistance in humans. To mimic this condition in rats, a 20% lard oil-heparin infusate was delivered into the bloodstream of Sprague-Dawley rats via jugular catheters. […] To assess muscle insulin sensitivity during the infusion, hyperinsulinemic-euglycemic clamps were performed on conscious, unrestrained rats during the terminal 90 minutes of the protocol. Lard oil infusion decreased insulin-stimulated glucose disposal to 47% of glycerol treated control subjects (FIG. 3C). […] Differences in the glucose infusion rats could not be accounted for by the slight differences in the glucose concentration that was achieved during the clamp nor to differences in steady-state insulin concentrations (Table 3).
Male Sprague-Dawley rats (˜250 grams) were randomly divided into nine different groups. Glycerol, 20% lard oil, or 20% soy oil emulsions were prepared as previously described (Stein 1997) and infused at a constant rate of 5 mL/Kg/hour. To activate lipoprotein lipase, heparin (6 units/hour) was added to the triglyceride emulsions. Lipids were infused in animals treated with control injections (normal saline), myriocin (100 μg/Kg IP) or cycloserine (50 mg/Kg IP). Drugs were given 12 hours prior to lipid infusion and equivalent doses were given intravenously at the time of infusion. […] Following lipid infusion animals were deeply anesthetized with sodium pentobarbital and soleus muscles were rapidly dissected out and rapidly frozen in liquid nitrogen.
Clamps were performed in conscious unrestrained animals using swivels and tethers (Instech, Plymouth Meeting, Pa.) to allow uninterrupted movement of the animal without disruption of infusion lines. Hyperinsulinemia was initiated by intravenous infusion of insulin (10 mU/kg/min at a flow rate of 4 μL/min).

soleus muscles = test: Isolated soleus muscle strips incubated with free fatty acids; settings: cycloserine 1 mM or myriocin 10 μM
[6] = Intralipid infusion, with or without myriocin or cycloserine
[7] = lard oil infusion, with or without myriocin or cycloserine

## Oc1ccc(C=Cc2cc(O)cc(O)c2)cc1 [resveratrol]
DES 1
  inhibition of DES 1: inhibit DES 1

## CC1=C(/C=C/C(C)=C/C=C/C(C)=C/C(=O)Nc2ccc(O)cc2)C(C)(C)CCC1 [fenretinide]
DES 1
  inhibition of DES 1: inhibit DES 1

## C[C@@H]1C[C@H]2[C@@H]3CCC4=CC(=O)C=C[C@]4(C)[C@@]3(F)[C@@H](O)C[C@]2(C)[C@@]1(O)C(=O)CO [Dexamethasone]
Sprague-Dawley rats [1]
  increase in fasting blood glucose: 13%
  increase in fasting insulin concentrations: 2.8 fold
Sprague dawley rats [2]; steady state
  Insulin, During Clamp: 6.7 ± 1.3 ng/mL
Sprague dawley rats [2]; Before Clamp by layout
  FFA: 211 ± 38 µM
Sprague dawley rats [2]
  Glucose, Before Clamp: 139.0 ± 3.1 mg/dL
  Insulin, Before Clamp: 4.36 ± 2.34 ng/mL
Sprague dawley rats [3]
  Glucose, During Clamp: 131.1 ± 5.1 mg/dL

## TNFα
[4]
  expression of glucosylceramide synthase (mRNA): markedly reduced expression
  expression of serine palmitoyltransferase subunits LCB1 and LCB2 (mRNA): increased expression
  increase in CerS1 (mRNA): 8 fold
  increase in CerS4 (mRNA): 5 fold

## N[C@@H]1CON=C1O [L-cycloserine]
Sprague-Dawley rats [5]; [6]
  insulin-stimulated glucose disposal / insulin resistance: Neither myriocin nor cycloserine prevented
  muscle DAG levels: Neither myriocin nor cycloserine prevented
Sprague-Dawley rats [5]; [7]
  ceramide in skeletal muscle: blocked ceramide synthesis
  diacylglycerol (DAG) in muscle: Neither myriocin nor cycloserine reduced DAG
Sprague-Dawley rats [5]; lard-infused animals
  glucose utilization in clamp: restored glucose utilization
Sprague-Dawley rats [5]; Lipid: Glycerol
  Glucose, During Clamp: 111.0 ± 3.0 mg/dL
  FFA, Before Clamp: 0.489 ± 0.10 mM
  FFA, Before Infusion: 0.562 ± 0.10 mM
  FFA, During Clamp: 0.501 ± 0.11 mM
  Glucose, Before Clamp: 113.0 ± 3.2 mg/dL
  Glucose, Before Infusion: 104.0 ± 13.1 mg/dL
  Insulin, Before Clamp: 9.19 ± 0.20 ng/mL
  Insulin, Before Infusion: 0.659 ± 0.11 ng/mL
  Insulin, During Clamp: 12.08 ± 0.03 ng/mL
Sprague-Dawley rats [5]; Lipid: Lard oil (PBS or drug)
  Glucose, During Clamp: 106.6 ± 2.6 mg/dL
  FFA, Before Clamp: 1.53 ± 0.19 mM
  FFA, Before Infusion: 0.672 ± 0.14 mM
  FFA, During Clamp: 2.12 ± 0.89 mM
  Glucose, Before Clamp: 101.6 ± 7.1 mg/dL
  Glucose, Before Infusion: 100.6 ± 6.4 mg/dL
  Insulin, Before Clamp: 2.18 ± 0.76 ng/mL
  Insulin, Before Infusion: 0.793 ± 0.15 ng/mL
  Insulin, During Clamp: 16.27 ± 2.69 ng/mL
Sprague-Dawley rats [5]; Lipid: Soy oil (PBS or drug)
  Glucose, During Clamp: 106.2 ± 0.44 mg/dL
  FFA, Before Clamp: 1.51 ± 0.23 mM
  FFA, Before Infusion: 1.02 ± 0.32 mM
  FFA, During Clamp: 2.10 ± 0.77 mM
  Glucose, Before Clamp: 124.0 ± 10.8 mg/dL
  Glucose, Before Infusion: 102.3 ± 7.1 mg/dL
  Insulin, Before Clamp: 3.13 ± 1.0 ng/mL
  Insulin, Before Infusion: 1.12 ± 0.17 ng/mL
  Insulin, During Clamp: 14.38 ± 0.67 ng/mL
Soleus muscles; 1 mM linoleate
  linoleate effects on 2-DOG uptake: did not alter linoleate effects
  linoleate effects on DAG accumulation: did not alter linoleate effects
Soleus muscles; 1 mM palmitate
  DAG in palmitate-treated muscles: without affecting DAG
  palmitate effect on insulin-stimulated 2-deoxyglucose uptake: completely negated the antagonistic effects of palmitate
  palmitate-induced ceramide accumulation: prevented palmitate-induced ceramide accumulation
